{
  "source": "patent US20060009433A1",
  "about": "“Neuroprotective spirostenol pharmaceutical compositions” (priority 2003, published 2006)",
  "key": {"[1]": {"system": "Mouse embryonic teratocarcinoma P19 cells", "assay": "Neurites-like sprouting in P19 cells", "type": "cell-based", "conditions": "90 μM, 2 days, then 5 days wash-out", "procedure": "(§1) Mouse embryonic teratocarcinoma P19 cells were cultured at 37° C. in […] in Alpha Minimum Essential medium with ribonucleosides and deoxyribonucleosides containing bovine calf serum (7.5%) and fetal bovine serum (2.5%) on 13 mm diameter glass cover-slip. PC12 cells (rat pheochromocytoma neurons) were cultured at 37° C. and 5% CO2 in RPMI 1640 medium devoid of glutamine and supplemented with 10% fetal bovine serum and 5% horse serum on 13 mm diameter glass cover-slip. When cells reached 70% confluence, the medium was replaced fresh medium containing 90 μM SP-224. P19 and PC12 cells were then incubated for 2 days before SP224 was washed out and replaced by standard medium. The culture medium was changed every 2 days for 5 days or every 2 days for 30 days before cells were fixed for immunocytochemistry. The NT2 cells were treated for 5 days and washed-out for 10 days.\n(§2) The above-referenced cell lines were used because they have been extensively used as a model of neuronal differentiation (Houldsworth et al., 2002; Chou et al., 2003; Das et al., 2004). To induce the sprouting, cells were plated in 6-well plates and treated for 2 days (P19) or 5 days (PC12 and NT2) with 90 μM SP-224 before being washed with fresh medium and cultured for 5 (P19) or 10 (PC12 and NT2) more days. […] Meantime, we observed a growth arrest of the treated-cells. […]"}, "[2]": {"system": "PC12 rat pheochromocytoma cells", "assay": "Neurites-like sprouting in PC12 cells", "type": "cell-based", "conditions": "90 μM, then wash-out", "procedure": "as §1, §2"}, "NT2 human neuronal cells": {"system": "NT2 human neuronal cells", "assay": "Neurites-like sprouting in NT2 cells", "type": "cell-based", "conditions": "90 μM, 5 days, then 10 days wash-out", "procedure": "as §1, §2"}, "P19 cells": {"system": "P19 cells", "assay": "Neuronal and glial markers in differentiated P19 cells (immunocytochemistry)", "type": "cell-based, mouse", "procedure": "as §1\nP19 cells were fixed with methanol at −20° C. for 15 minutes before being permeabilized for 30 minutes at room temperature with 1×PBS pH=7.4 containing 0.1% Triton 100×. Cell were incubated for 24 hours at 4° C. with antibodies raised against GAP43 (1/1000), DCX (1/3000), βIII Tubulin (1/500), synaptophysin (1/200), MAP2 (1/500), ChAT (1/2000), GFAP (1/1000) or CNPase (1/250). […] Cells nucleus was counterstained using DAPI or ethidium bromide.\nThe ability of SP-224 to induce the neuronal differentiation of the P19 cells was assessed as follows. P19 cells were treated for 2 days followed by a 5 days wash out period (FIG. 26). The neuronal markers expression was also studied after 28 days (FIG. 27) in order to in order to verify whether the expression observed at 5 days was temporary or permanent. No neuronal marker was observed on the control except for the synaptophysin for which the staining was, however, very weak (FIG. 26C). […] After 28 days of wash out the neuronal differentiation is even more important."}, "[3]": {"system": "neural stem cells in the sub-ventricular zone (SVZ) of the rat brain", "assay": "In vivo i.c.v. infusion, neural stem cells of the SVZ (BrdU, DCX immunohistochemistry)", "procedure": "Male Long-Evans rats weighing 300-325 g (3-4 months old) were housed following a natural day-night cycle with food and water ad libitum. Prior to surgery, rats were anesthetized with equithesin (3 ml/kg, i.p.) and then placed on a stereotaxic frame. Using an electrode micromanipulator, the outlet of an osmotic micropump was implanted into the left cerebral ventricle following the coordinates D=3.4 mm, L=1.4 mm and AP=0.92 mm caudal to bregma. The tank of the osmotic pump was implanted in a subcutaneous pocket in the midscapular area of the back of the rat. After surgery, rats were placed on a heating blanket for recovery. During the whole procedure, the body temperature was monitored and kept stable at 37° C. SP-224 at 375 μM solubilized in polypropylene glycol/glycerol/distilled water (50/25/25) was perfused by i.c.v. route at 5 μl per hour for 2 weeks. Rats were sacrificed 3 weeks after the end of the brain infusion by intracardiac perfusion, first with a washing solution (NaCl 8 g/l, dextrose 4 g/l, sucrose 8 g/l, calcium chloride 0.23 g/l, sodium cacodylate anhydrous 0.25 g/l, in deionized water) and then with fixative cacodylate buffer (sucrose 40 g/l, paraformaldehyde 40 g/l, sodium cacodylate anhydrous 10.72 g/l, in deionized water). Brains were stored in fixative cacodylate buffer for an additional week before being embedded in paraffin. To study the neural stem cells proliferation rats were daily injected with a BrdU solution at 100 mg/kg. The first injection took place the day following the surgery and the last injection was performed the day previous to the euthanasia.\nBrains were embedded in a paraffin block […] and cut into 20-μm thick slices.\nThis experiment was conducted to validate the results obtained in vitro and to assess the ability of the SP-224 to induce a neuronal differentiation of the neural stem cells present in the sub-ventricular zone (SVZ) of the rat brain. The SP-224 was administered in a solution at 375 μM by intra-cerebroventricular route for 2 weeks, corresponding to a total quantity of […] of SP-224 per rat. […]"}, "[4]": {"conditions": "2 days treatment, 28-30 days wash out"}, "[5]": {"conditions": "375 μM i.c.v., 5 μl per hour for 2 weeks, sacrifice 3 weeks later"}},
  "note": "Entries after “also recorded” stand apart in the source; their conditions may differ.",
  "data": [
    {"compound": "CC1CCC2(NC1)OC1CC3C4CC=C5CC(O)CCC5(C)C4CCC3(C)C1C2C", "note": "[SP224, (20α)-25ζ-methyl-(22R,26)-azacyclofurost-5-en-3ζ-ol]", "values": [
      {"measurement": "sprouting of P19 cells", "setting": "[1]", "result": "significant sprouting"},
      {"measurement": "sprouting of PC12 cells", "setting": "[2]", "result": "significant sprouting"},
      {"measurement": "sprouting of NT2 cells", "setting": "NT2 human neuronal cells", "result": "significant sprouting"},
      {"measurement": "astrocyte marker GFAP / differentiation into astrocytes", "setting": "P19 cells; 90 μM 2 days, 5 days SP-224 free medium", "result": "no positive GFAP signal was detected; also recorded: did not trigger the differentiation of the P19 cells into astrocytes"},
      {"measurement": "expression of ChAT", "setting": "P19 cells; 90 μM 2 days, 5 days wash out", "result": "strong expression"},
      {"measurement": "expression of MAP2", "setting": "P19 cells; 90 μM 2 days, 5 days wash out", "result": "strong expression"},
      {"measurement": "expression of migrating neuroblasts marker DCX", "setting": "P19 cells; 90 μM 2 days, 5 days wash out", "result": "strongly expressed"},
      {"measurement": "expression of synaptophysin", "setting": "P19 cells; 90 μM 2 days, 5 days wash out", "result": "strong expression"},
      {"measurement": "expression of βIII tubulin", "setting": "P19 cells; 90 μM 2 days, 5 days wash out", "result": "strong expression"},
      {"measurement": "network of axons and dendrites (βIII tubulin staining)", "setting": "P19 cells; [4]", "result": "dramatically extended"},
      {"measurement": "synaptophysin labeling", "setting": "P19 cells; [4]", "result": "established synaptic connections"},
      {"measurement": "toxic effect on the brain tissue", "setting": "[3]; 375 μM i.c.v. for 2 weeks", "result": "without any apparent toxic effect on the brain tissue"},
      {"measurement": "BrdU immunostaining, neural stem cell self-renewal/proliferation in the SVZ", "setting": "[3]; [5]", "result": "able to induce a self-renewal of the neural stem cells in the SVZ; also recorded: dramatic increase of the BrdU"},
      {"measurement": "expression of early neuronal marker DCX in the SVZ cells", "setting": "[3]; [5]", "result": "induced the expression of the early neuronal marker DCX"}
    ]}
  ]
}
